{"source": "patent US9828407B2", "about": "“Water soluble and activable phenolic derivatives with dermocosmetic and therapeutic applications and process for preparing said derivatives” (LIBRAGEN, priority 2006, dated 2017)", "key": {"[1]": {"test_system": "α-glucosidase (from Saccharomyces cerevisiae)", "assay": "Activation (hydrolysis) of Taxifolin glucoside by an α-glucosidase preparation", "type": "biochemical", "conditions": "18 hours, 30° C., potassium phosphate buffer 0.1 M", "experimental": "The reaction media were analysed by HPLC (method 2) after a 2-fold dilution of an aliquot with methanol."}, "Solubility in water": {"assay": "Solubility in water", "type": "physicochemical", "conditions": "25° C."}, "[2]": {"conditions": "background statement; cited from earlier work"}}, "note": "“And” between values parts separate entries of the source, which are not always exact repeats. Identical values can stand only once. Like-named read-outs stand apart in the source and are kept apart here.", "data": [{"compound": "taxifolin O-α-glucoside [Taxifolin glucoside]", "values": [{"measurement": "conversion of Taxifolin glucoside in the presence of the α-glucosidase enzyme", "setting": "[1]; pH 7.3", "result": "totally converted into Taxifolin"}, {"measurement": "stability of Taxifolin glucoside in the medium without α-glucosidase enzyme", "setting": "[1]; pH 7.3, no enzyme", "result": "remained unchanged"}, {"measurement": "colour or odour changes on storage", "setting": "4° C., 22° C., 37° C. and 45° C., 4 months", "result": "No colour or odour changes"}, {"measurement": "Measured quantity of taxifolin glucoside (in % of the initial quantity)", "setting": "day 0, stored at +4° C.", "result": 100, "unit": "%"}, {"measurement": "Measured quantity of taxifolin glucoside (in % of the initial quantity)", "setting": "day 0, stored at +22° C.", "result": 100, "unit": "%"}, {"measurement": "Measured quantity of taxifolin glucoside (in % of the initial quantity)", "setting": "day 0, stored at +37° C.", "result": 100, "unit": "%"}, {"measurement": "Measured quantity of taxifolin glucoside (in % of the initial quantity)", "setting": "day 0, stored at +45° C.", "result": 100, "unit": "%"}, {"measurement": "Measured quantity of taxifolin glucoside (in % of the initial quantity)", "setting": "day 9, stored at +4° C.", "result": 100, "unit": "%"}, {"measurement": "Measured quantity of taxifolin glucoside (in % of the initial quantity)", "setting": "day 9, stored at +22° C.", "result": 100, "unit": "%"}, {"measurement": "Measured quantity of taxifolin glucoside (in % of the initial quantity)", "setting": "day 9, stored at +37° C.", "result": 100, "unit": "%"}, {"measurement": "Measured quantity of taxifolin glucoside (in % of the initial quantity)", "setting": "day 9, stored at +45° C.", "result": 100, "unit": "%"}, {"measurement": "Measured quantity of taxifolin glucoside (in % of the initial quantity)", "setting": "day 23, stored at +4° C.", "result": 100, "unit": "%"}, {"measurement": "Measured quantity of taxifolin glucoside (in % of the initial quantity)", "setting": "day 23, stored at +22° C.", "result": 100, "unit": "%"}, {"measurement": "Measured quantity of taxifolin glucoside (in % of the initial quantity)", "setting": "day 23, stored at +37° C.", "result": 100, "unit": "%"}, {"measurement": "Measured quantity of taxifolin glucoside (in % of the initial quantity)", "setting": "day 23, stored at +45° C.", "result": 91, "unit": "%"}, {"measurement": "Measured quantity of taxifolin glucoside (in % of the initial quantity)", "setting": "day 37, stored at +4° C.", "result": 100, "unit": "%"}, {"measurement": "Measured quantity of taxifolin glucoside (in % of the initial quantity)", "setting": "day 37, stored at +22° C.", "result": 100, "unit": "%"}, {"measurement": "Measured quantity of taxifolin glucoside (in % of the initial quantity)", "setting": "day 37, stored at +37° C.", "result": 100, "unit": "%"}, {"measurement": "Measured quantity of taxifolin glucoside (in % of the initial quantity)", "setting": "day 37, stored at +45° C.", "result": 94, "unit": "%"}, {"measurement": "Measured quantity of taxifolin glucoside (in % of the initial quantity)", "setting": "day 63, stored at +4° C.", "result": 100, "unit": "%"}, {"measurement": "Measured quantity of taxifolin glucoside (in % of the initial quantity)", "setting": "day 63, stored at +22° C.", "result": 95, "unit": "%"}, {"measurement": "Measured quantity of taxifolin glucoside (in % of the initial quantity)", "setting": "day 63, stored at +37° C.", "result": 96, "unit": "%"}, {"measurement": "Measured quantity of taxifolin glucoside (in % of the initial quantity)", "setting": "day 63, stored at +45° C.", "result": 79, "unit": "%"}, {"measurement": "Measured quantity of taxifolin glucoside (in % of the initial quantity)", "setting": "day 118, stored at +4° C.", "result": 100, "unit": "%"}, {"measurement": "Measured quantity of taxifolin glucoside (in % of the initial quantity)", "setting": "day 118, stored at +22° C.", "result": 100, "unit": "%"}, {"measurement": "Measured quantity of taxifolin glucoside (in % of the initial quantity)", "setting": "day 118, stored at +37° C.", "result": 91, "unit": "%"}, {"measurement": "Measured quantity of taxifolin glucoside (in % of the initial quantity)", "setting": "day 118, stored at +45° C.", "result": 73, "unit": "%"}]}, {"compound": "O=C1c2c(O)cc(O)cc2OC(c2ccc(O)c(O)c2)C1O", "note": "(centres unmarked) [Taxifolin, 3,5,7,3′,4′-pentahydroxyflavanone]", "values": [{"measurement": "solubility", "setting": "Solubility in water", "result": "1190 µg/mL and 3910 µM"}, {"measurement": "solubility in aqueous solution", "setting": "[2]", "result": "around 1 g/l"}]}]}
